{"source": "paper PMC9146695", "about": "“Globularia alypum L. and Related Species: LC-MS Profiles and Antidiabetic, Antioxidant, Anti-Inflammatory, Antibacterial and Anticancer Potential” (Pharmaceuticals, 2022)", "type_in_all_cases": "cell-based", "key": {"[1]": {"test_system": "Staphylococcus aureus ATCC 29213", "test": "Serial broth microdilution with agar sub-cultivation"}, "[2]": {"test_system": "Klebsiella pneumoniae MFBF 10402", "test": "Serial broth microdilution with agar sub-cultivation"}, "[3]": {"test_system": "Staphylococcus aureus ATCC 6538", "test": "Serial broth microdilution with agar sub-cultivation"}, "[4]": {"test_system": "Enterococcus faecalis ATCC 29212", "test": "Serial broth microdilution with agar sub-cultivation", "settings": "ATCC29212, n.d. = not detected (0.18–11.36 mg/mL)"}, "[5]": {"test_system": "Bacillus cereus ATCC 11778", "test": "Serial broth microdilution with agar sub-cultivation"}, "[6]": {"test_system": "Bacillus subtilis ATCC 6633", "test": "Serial broth microdilution with agar sub-cultivation"}, "[7]": {"test_system": "Bacillus subtilis ATCC 6633", "test": "Well diffusion method", "settings": "aerial parts extracts c = 50 mg/mL; antibiotics c = 0.2 mg/mL; n.d. = growth inhibition not detected", "protocol": "(§1) Antibacterial activity was evaluated using the following strains: Bacillus cereus American Type Culture Collection (ATCC, Manassas, VA, USA) 11778, B. subtilis ATCC 6633, Enterococcus faecalis ATCC 29212, Staphylococcus aureus ATCC 6538 and S. aureus ATCC 29213 among Gram-positive and Escherichia coli ATCC 10536, Klebsiella pneumoniae MFBF 10402 and Pseudomonas aeruginosa ATCC 27853 among Gram-negative bacterial species. Additionally, eight clinical isolates of S. aureus, including methicillin-resistant S. aureus (MRSA MFB F101, MRSA MFBF 124, MRSA MFBF 154, MRSA MFBF 164, and MRSA MFBF 177) and methicillin susceptible S. aureus (S. aureus MFBF 505, S. aureus MFBF 10661 and S. aureus MFBF 10666) were used. Bacterial strains were sourced from the Collection of Microorganisms, Department of Microbiology, Faculty of Pharmacy and Biochemistry, University of Zagreb. Inoculums were prepared from overnight cultures that were cultured on tryptic soy agar (TSA) at 37 °C, suspended in sterile physiological saline, with the optic density adjusted to 0.5 McFarland (1.5 × 10^8 colony-forming units (CFUs)/mL) using a densitometer (Densimat, BioMérieux, Marcy-l’Étoile, France). Right before cultivation in nutrient medium, 1 mL of each prepared suspension was dissolved with 9 mL physiological saline. Prior to cell treatment, sample stock solutions in distilled water (c = 50 mg/mL) were filtered through Chromafil cellulose acetate filters of pore size 0.22 μm (Macherey-Nagel, Düren, Germany).\n(§2) Well diffusion method was carried out according to the European Pharmacopoeia. Inoculums (100 μL) were transferred to individual petri dishes with 4 mm thick Müller–Hinton agar and equally distributed across agar surface with a glass L-stick. Wells were prepared using sterile stainless-steel cylinders (d = 6 mm) and filled with 50 μL of methanolic aerial parts extract solution (c = 50 mg/mL) in distilled water. Plates were incubated at 37 °C for 18 h in the dark. Diameters of the zones of inhibition of bacterial growth (mm) were read from the diameters of transparent zones around the wells. Gentamicin and norfloxacin (c = 0.2 mg/mL) were used as positive controls."}, "[8]": {"test_system": "Bacillus cereus ATCC 11778", "test": "Well diffusion method", "settings": "aerial parts extracts c = 50 mg/mL; antibiotics c = 0.2 mg/mL; n.d. = growth inhibition not detected", "protocol": "as §1, §2"}, "[9]": {"test_system": "Pseudomonas aeruginosa ATCC 27853", "test": "Well diffusion method", "settings": "aerial parts extracts c = 50 mg/mL; antibiotics c = 0.2 mg/mL; n.d. = growth inhibition not detected", "protocol": "as §1, §2"}, "[10]": {"test_system": "Enterococcus faecalis ATCC 29212", "test": "Well diffusion method", "settings": "aerial parts extracts c = 50 mg/mL; antibiotics c = 0.2 mg/mL; n.d. = growth inhibition not detected", "protocol": "as §1, §2"}, "[11]": {"test_system": "Staphylococcus aureus ATCC 6538", "test": "Well diffusion method", "settings": "aerial parts extracts c = 50 mg/mL; antibiotics c = 0.2 mg/mL", "protocol": "as §1, §2"}, "[12]": {"test_system": "Klebsiella pneumoniae MFBF 10402", "test": "Well diffusion method", "settings": "aerial parts extracts c = 50 mg/mL; antibiotics c = 0.2 mg/mL; n.d. = growth inhibition not detected", "protocol": "as §1, §2"}, "[13]": {"test_system": "Escherichia coli ATCC 10536", "test": "Well diffusion method", "settings": "aerial parts extracts c = 50 mg/mL; antibiotics c = 0.2 mg/mL; n.d. = growth inhibition not detected", "protocol": "as §1, §2"}, "[14]": {"test_system": "Escherichia coli ATCC 10536", "test": "Serial broth microdilution with agar sub-cultivation"}, "[15]": {"test_system": "Pseudomonas aeruginosa ATCC 27853", "test": "Serial broth microdilution with agar sub-cultivation"}}}
{"compound": "CNC(C)C1CCC(N)C(OC2C(N)CC(N)C(OC3OCC(C)(O)C(NC)C3O)C2O)O1", "note": "(stereo not shown) [Gentamicin, gentamicin]", "values": [{"measurement": "MIC", "setting": "[1]; ATCC29213, aerial parts extracts, TTC detection", "value": 0.3, "unit": "µg/mL"}, {"measurement": "MBC", "setting": "[1]; ATCC29213, agar sub-cultivation", "value": 0.7, "unit": "µg/mL"}, {"measurement": "MIC", "setting": "[2]; MFBF10402, aerial parts extracts, TTC detection, n.d. = growth inhibition not detected (0.18–11.36 mg/mL)", "value": 0.3, "unit": "µg/mL"}, {"measurement": "MBC", "setting": "[2]; MFBF10402, agar sub-cultivation, n.d. = not detected (0.18–11.36 mg/mL)", "value": 0.8, "unit": "µg/mL"}, {"measurement": "MIC", "setting": "[3]; ATCC6538, aerial parts extracts, TTC detection", "value": 0.6, "unit": "µg/mL"}, {"measurement": "MBC", "setting": "[3]; ATCC6538, agar sub-cultivation, n.d. = not detected", "value": 0.8, "unit": "µg/mL"}, {"measurement": "MBC", "setting": "[4]", "value": 4.6, "unit": "µg/mL"}, {"measurement": "MIC", "setting": "[5]; ATCC11778, aerial parts extracts, TTC detection, n.d. = growth inhibition not detected (0.18–11.36 mg/mL)", "value": 1.5, "unit": "µg/mL"}, {"measurement": "MBC", "setting": "[5]; ATCC11778, agar sub-cultivation, n.d. = not detected (0.18–11.36 mg/mL)", "value": 1.5, "unit": "µg/mL"}, {"measurement": "MIC", "setting": "[6]; ATCC6633, aerial parts extracts, TTC detection, n.d. = growth inhibition not detected (0.18–11.36 mg/mL)", "value": "< 0.1", "unit": "µg/mL"}, {"measurement": "MBC", "setting": "[6]; ATCC6633, agar sub-cultivation, n.d. = not detected (0.18–11.36 mg/mL)", "value": 0.2, "unit": "µg/mL"}, {"measurement": "growth inhibition zone", "setting": "[7]", "value": "24.7 ± 0.6", "unit": "mm"}, {"measurement": "growth inhibition zone", "setting": "[8]", "value": "22.3 ± 0.6", "unit": "mm"}, {"measurement": "growth inhibition zone", "setting": "[9]", "value": "24.3 ± 0.6", "unit": "mm"}, {"measurement": "growth inhibition zone", "setting": "[10]", "value": "15.0 ± 0.0", "unit": "mm"}, {"measurement": "growth inhibition zone", "setting": "[11]", "value": "24.0 ± 0.0", "unit": "mm"}, {"measurement": "growth inhibition zone", "setting": "[12]", "value": "21.0 ± 0.0", "unit": "mm"}, {"measurement": "growth inhibition zone", "setting": "[13]", "value": "23.3 ± 0.6", "unit": "mm"}, {"measurement": "MIC", "setting": "[14]; ATCC10536, aerial parts extracts, TTC detection, n.d. = growth inhibition not detected (0.18–11.36 mg/mL)", "value": 0.1, "unit": "µg/mL"}, {"measurement": "MBC", "setting": "[14]; ATCC10536, agar sub-cultivation, n.d. = not detected (0.18–11.36 mg/mL)", "value": 1.5, "unit": "µg/mL"}, {"measurement": "MIC", "setting": "[15]; ATCC27853, aerial parts extracts, TTC detection, n.d. = growth inhibition not detected (0.36–22.73 mg/mL)", "value": 1.1, "unit": "µg/mL"}, {"measurement": "MBC", "setting": "[15]; ATCC27853, agar sub-cultivation, n.d. = not detected (0.36–22.73 mg/mL)", "value": 3, "unit": "µg/mL"}]}
